Columns and labels:
Format in all cases: cell-based
[1] = target: T1, Casein kinase II subunit alpha' (Homo sapiens, UniProt P19784); experiment: Displacement of fluorescent tracer from full-length human C-terminal NanoLuc-tagged CK2alpha' expressed in HEK293T cells measured after 2 hrs by NanoBRET assay
[2] = target: T2, Casein kinase II subunit alpha (Homo sapiens, UniProt P68400); experiment: Displacement of fluorescent tracer from full-length human C-terminal NanoLuc-tagged CK2alpha expressed in HEK293T cells measured after 2 hrs by NanoBRET assay
[3] = target: T2, Casein kinase II subunit alpha; experiment: Displacement of fluorescent tracer from full-length human C-terminal NanoLuc-tagged CK2alpha expressed in HEK293T permeabilized cells measured after 2 hrs by NanoBRET assay
[4] = target: T1, Casein kinase II subunit alpha'; experiment: Displacement of fluorescent tracer from full-length human C-terminal NanoLuc-tagged CK2alpha' expressed in HEK293T permeabilized cells measured after 2 hrs by NanoBRET assay

T1 sequence (P19784 whole entry): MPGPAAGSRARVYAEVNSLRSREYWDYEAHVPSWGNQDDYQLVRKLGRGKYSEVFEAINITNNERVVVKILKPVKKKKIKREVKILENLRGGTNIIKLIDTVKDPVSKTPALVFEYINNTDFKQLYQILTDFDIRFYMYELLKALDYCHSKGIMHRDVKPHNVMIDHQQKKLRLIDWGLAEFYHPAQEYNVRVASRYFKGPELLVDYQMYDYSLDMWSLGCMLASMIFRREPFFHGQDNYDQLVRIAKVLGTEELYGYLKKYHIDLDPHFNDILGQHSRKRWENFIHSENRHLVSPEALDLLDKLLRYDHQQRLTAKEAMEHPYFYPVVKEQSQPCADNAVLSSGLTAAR
T2 sequence (P68400 whole entry): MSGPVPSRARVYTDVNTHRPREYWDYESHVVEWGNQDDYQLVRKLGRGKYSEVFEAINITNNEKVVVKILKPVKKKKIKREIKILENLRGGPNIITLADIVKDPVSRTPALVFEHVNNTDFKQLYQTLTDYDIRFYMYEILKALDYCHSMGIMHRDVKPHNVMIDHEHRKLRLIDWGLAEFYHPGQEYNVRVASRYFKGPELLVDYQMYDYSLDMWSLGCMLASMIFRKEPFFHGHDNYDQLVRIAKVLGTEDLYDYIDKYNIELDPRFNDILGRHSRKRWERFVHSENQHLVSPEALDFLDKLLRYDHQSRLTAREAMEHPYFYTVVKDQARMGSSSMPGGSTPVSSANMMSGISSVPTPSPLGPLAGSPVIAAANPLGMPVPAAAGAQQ

IC50 [1]	IC50 [2]	IC50 [3]	IC50 [4]	Compound
> 50 µM	> 50 µM	7.52 µM	> 50 µM	COC(=O)c1ccc(-c2cnn3ccc(N(CCOCCO)C(=O)OC(C)(C)C)nc23)cc1O
–	–	0.075 µM	0.303 µM	O=C(O)c1ccc2cc1OCCOCCNc1ccn3ncc-2c3n1
